Read-outs that look alike come from different tables or passages of the source.
Biological target: T1, F508delCFTR (Homo sapiens, UniProt P13569, DEL508-508)
T1 construct: expressed in transfected cells; host or cells: CFBE41o- human lung derived epithelial cells (CFBE41o-F508delCFTR-HRP), doxycycline-inducible
Assay: Cell Surface Expression-Horse Radish Peroxidase (CSE-HRP) Assay
Format: cell-based
Conditions: for Maximum % activity (with co-corrector) / Emax: maximum at any tested concentration; for Emax: read-out: Maximum % activity (without co-corrector)
In short: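 Corrector compounds were given as 8-point 3-fold series from 20 or 30 μM, with or without a 2 μM co-corrector, for 18-24 h at 33 °C. Surface HRP was read by luminol luminescence as % of positive control; variable-Hill-slope sigmoidal fitting gave EC50 from triplicate plates.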

[1] = test compound alone, without co-corrector, read-out: EC50 (without co-corrector)
[2] = with co-corrector, read-out: EC50 (with co-corrector)
[3] = test compound with co-corrector
[4] = test compound with co-corrector, read-out: EC50 (with co-corrector)
[5] = test compound without co-corrector
[6] = test compound without co-corrector, read-out: EC50 (without co-corrector)

T1 sequence (P13569 with tags, fused parts or gaps DEL508-508): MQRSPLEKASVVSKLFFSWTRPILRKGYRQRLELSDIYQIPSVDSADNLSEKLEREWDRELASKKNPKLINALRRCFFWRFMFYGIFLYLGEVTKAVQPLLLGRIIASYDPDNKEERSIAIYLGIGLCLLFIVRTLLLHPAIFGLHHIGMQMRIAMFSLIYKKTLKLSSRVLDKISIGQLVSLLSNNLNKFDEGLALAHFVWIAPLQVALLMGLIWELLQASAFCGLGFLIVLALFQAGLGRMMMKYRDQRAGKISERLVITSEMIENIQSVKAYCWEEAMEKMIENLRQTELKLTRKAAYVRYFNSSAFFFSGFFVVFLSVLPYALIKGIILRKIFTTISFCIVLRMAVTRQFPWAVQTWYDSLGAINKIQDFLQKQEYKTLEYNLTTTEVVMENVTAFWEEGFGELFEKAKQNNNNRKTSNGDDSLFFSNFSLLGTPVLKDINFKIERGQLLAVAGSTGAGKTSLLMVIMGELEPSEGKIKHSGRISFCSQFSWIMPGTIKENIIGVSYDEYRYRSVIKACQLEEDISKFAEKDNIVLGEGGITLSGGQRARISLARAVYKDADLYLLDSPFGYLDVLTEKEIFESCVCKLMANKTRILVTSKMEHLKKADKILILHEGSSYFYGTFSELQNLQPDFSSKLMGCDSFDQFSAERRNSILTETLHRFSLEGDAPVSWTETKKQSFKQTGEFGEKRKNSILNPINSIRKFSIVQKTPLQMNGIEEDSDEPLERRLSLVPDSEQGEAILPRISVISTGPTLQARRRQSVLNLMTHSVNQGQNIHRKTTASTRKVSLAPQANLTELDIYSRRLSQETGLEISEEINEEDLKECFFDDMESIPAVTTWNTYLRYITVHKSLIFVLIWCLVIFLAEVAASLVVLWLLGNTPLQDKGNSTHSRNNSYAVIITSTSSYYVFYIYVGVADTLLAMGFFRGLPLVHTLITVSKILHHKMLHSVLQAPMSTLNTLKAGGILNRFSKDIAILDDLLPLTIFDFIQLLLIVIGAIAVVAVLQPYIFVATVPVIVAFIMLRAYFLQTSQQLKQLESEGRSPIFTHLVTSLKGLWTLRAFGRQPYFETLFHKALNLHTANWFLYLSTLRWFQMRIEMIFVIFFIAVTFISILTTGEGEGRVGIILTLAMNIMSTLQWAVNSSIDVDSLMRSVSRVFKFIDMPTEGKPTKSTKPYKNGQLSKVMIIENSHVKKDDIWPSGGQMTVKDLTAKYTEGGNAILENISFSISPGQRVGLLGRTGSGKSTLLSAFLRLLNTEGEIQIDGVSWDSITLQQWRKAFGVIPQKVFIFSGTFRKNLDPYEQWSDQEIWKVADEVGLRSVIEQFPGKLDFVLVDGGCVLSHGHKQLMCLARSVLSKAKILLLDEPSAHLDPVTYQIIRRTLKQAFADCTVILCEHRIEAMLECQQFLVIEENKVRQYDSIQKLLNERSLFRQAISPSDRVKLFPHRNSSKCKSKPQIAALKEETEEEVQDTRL

EC50 [1] [µM] | Maximum % activity (with co-corrector) (with co-corrector) | EC50 [2] [µM] | Emax (without co-corrector) [%] | Maximum % activity (with co-corrector) [3] | EC50 [4] [µM] | Emax [5] [%] | EC50 [6] [µM] | Compound
> 10 | + (<150) | > 10 | < 50 |  |  |  |  | CCCS(=O)(=O)NC(=O)C1(c2cccc(OC)c2)CCOCC1 [Example III-119, 4-(3-methoxyphenyl)-N-(propane-1-sulfonyl)oxane-4-carboxamide]
3 to 10 | +++ (≥350) | < 3 | > 150 |  |  |  |  | Cc1ccc(O[C@H]2CCOC2)c(C2(C(=O)NS(=O)(=O)c3cccc4ncccc34)CC2)c1 [II-117]
 |  |  |  | +++ (≥350) | 3 to 10 | > 150 | 3 to 10 | COc1cc(C2(C(=O)NS(=O)(=O)c3cccc4nc(C)ccc34)CC2)c(OCC(F)F)cn1 [GIII-14]
 |  |  |  | ++ (≥150 and <350) | 3 to 10 | 50 to 150 | 3 to 10 | Cc1cnc(N2CCCC2)cc1C1(C(=O)NS(=O)(=O)c2cccc3ncccc23)CC1 [GII-9, 1-[5-methyl-2-(pyrrolidin-1-yl)pyridin-4-yl]-N-(quinoline-5-sulfonyl)cyclopropane-1-carboxamide]
 |  |  |  | +++ (≥350) | < 3 | > 150 | < 3 | CC(C)Oc1cnc(OC(C)C)c(C2(C(=O)NS(=O)(=O)c3cccc4[nH]ccc34)CC2)c1 [Example GI-66, 1-{2,5-bis[(propan-2-yl)oxy]pyridin-3-yl}-N-(1H-indole-4-sulfonyl)cyclopropane-1-carboxamide]
< 3 | +++ (≥350) | < 3 | > 150 |  |  |  |  | Cc1ccc(O[C@@H]2CCOC2)c(C2(C(=O)NS(=O)(=O)c3cccc4ncccc34)CC2)c1 [Example I-122, 1-(5-methyl-2-{[(3R)-oxolan-3-yl]oxy}phenyl)-N-(quinoline-5-sulfonyl)cyclopropane-1-carboxamide]
< 3 | +++ (≥350) | < 3 | > 150 |  |  |  |  | CCOc1ccc(OC)c(C2(C(=O)NS(=O)(=O)c3cccc4ncccc34)CC2)c1 [Example I-31, 1-(5-ethoxy-2-methoxyphenyl)-N-(quinoline-5-sulfonyl)cyclopropane-1-carboxamide]
3 to 10 | +++ (≥350) | < 3 | > 150 |  |  |  |  | COc1cccc(OC)c1C1(C(=O)NS(=O)(=O)c2cccc3ccccc23)CC1 [Example I-7, 1-(2,6-dimethoxyphenyl)-N-(naphthalene-1-sulfonyl)cyclopropane-1-carboxamide]
< 3 | +++ (≥350) | < 3 | > 150 |  |  |  |  | COc1ccc(C2CCC2)c(C2(C(=O)NS(=O)(=O)c3cccc4nc(C)ccc34)CC2)c1 [II-47]
< 3 | +++ (≥350) | < 3 | > 150 |  |  |  |  | CC(C)Oc1ncc(C2CCC2)cc1C1(C(=O)NS(=O)(=O)c2cccc3ncccc23)CC1 [Example GI-22, 1-{5-cyclobutyl-2-[(propan-2-yl)oxy]pyridin-3-yl}-N-(quinoline-5-sulfonyl)cyclopropane-1-carboxamide]
 |  |  |  | +++ (≥350) | < 3 | > 150 | < 3 | CC(C)COc1ncc(N2CCCC2)cc1C1(C(=O)NS(=O)(=O)c2cccc3ncccc23)CC1 [Example GI-68, 1-[2-(2-methylpropoxy)-5-(pyrrolidin-1-yl)pyridin-3-yl]-N-(quinoline-5-sulfonyl)cyclopropane-1-carboxamide]
> 10 | + (<150) | < 3 | < 50 |  |  |  |  | O=C(O)c1ccc(Cl)cc1S(=O)(=O)NC(=O)C1(c2ccc(Cl)cc2Cl)CC1 [Example III-68, 4-chloro-2-{[l-(2,4-dichlorophenyl)cyclopropane-1-carbonyl]sulfamoyl}benzoic acid]
< 3 | +++ (≥350) | < 3 | > 150 |  |  |  |  | CCOC(C)(C)c1ccc(OC)c(C2(C(=O)NS(=O)(=O)c3cccc4ncccc34)CC2)c1 [II-96]
 |  |  |  | +++ (≥350) | 3 to 10 | > 150 | 3 to 10 | COc1nc(N(C)C)ccc1C1(C(=O)NS(=O)(=O)c2cccc3ncccc23)CC1 [GII-18, 1-[6-(dimethylamino)-2-methoxypyridin-3-yl]-N-(quinoline-5-sulfonyl)cyclopropane-1-carboxamide]
< 3 | +++ (≥350) | < 3 | > 150 |  |  |  |  | COc1ccc(OC)c(C2(C(=O)NS(=O)(=O)c3cccc4ncccc34)CC2)c1 [Example I-29, 1-(2,5-dimethoxyphenyl)-N-(quinoline-5-sulfonyl)cyclopropane-1-carboxamide]
< 3 | +++ (≥350) | < 3 | > 150 |  |  |  |  | COc1ccc(C2CCC2)cc1C1(C(=O)NS(=O)(=O)c2cccc3ncn(C)c23)CCC1 [Example I-24, 1-(5-cyclobutyl-2-methoxyphenyl)-N-(1-methyl-1H-benzimidazole-7-sulfonyl)cyclobutane-1-carboxamide]
< 3 | +++ (≥350) | < 3 | > 150 |  |  |  |  | COC[C@@H](C)Oc1ccc(C)cc1C1(C(=O)NS(=O)(=O)c2cccc3nc(C)ccc23)CC1 [Example I-107, 1-(2-{[(2R)-1-methoxypropan-2-yl]oxy}-5-methylphenyl)-N-(2-methylquinoline-5-sulfonyl)cyclopropane-1-carboxamide]
3 to 10 | ++ (≥150 and <350) | 3 to 10 | < 50 |  |  |  |  | O=C(NS(=O)(=O)c1cccc(Cl)c1)C1(c2ccc(Cl)cc2Cl)CC1 [Example III-26, N-(3-chlorobenzene-1-sulfonyl)-1-(2,4-dichlorophenyl)cyclopropane-1-carboxamide]
< 3 | +++ (≥350) | < 3 | > 150 |  |  |  |  | COc1ccc(C)c(C)c1C1(C(=O)NS(=O)(=O)c2cccc3c2CCCN3)CC1 [II-36]
3 to 10 | +++ (≥350) | < 3 | > 150 |  |  |  |  | COc1cc(C2CCC2)cc(OC)c1C1(C(=O)NS(=O)(=O)c2cccc3ncccc23)CC1 [Example I-80, 1-(4-cyclobutyl-2,6-dimethoxyphenyl)-N-(quinoline-5-sulfonyl)cyclopropane-1-carboxamide]
 |  |  |  | +++ (≥350) | < 3 | > 150 | < 3 | COc1cnc(OCC(C)C)c(C2(C(=O)NS(=O)(=O)c3cccc4ncccc34)CC2)c1 [Example GI-77, 1-[5-methoxy-2-(2-methylpropoxy)pyridin-3-yl]-N-(quinoline-5-sulfonyl)cyclopropane-1-carboxamide]
< 3 | +++ (≥350) | < 3 | > 150 |  |  |  |  | COc1ncc(C2CCC2)cc1C1(C(=O)NS(=O)(=O)c2cccc3c2ccn3C)CC1 [II-14]
> 10 | ++ (≥150 and <350) | 3 to 10 | < 50 |  |  |  |  | O=C(NS(=O)(=O)c1ccccc1)C1(c2ccc(F)cc2)CC1 [Example III-31, N-(benzenesulfonyl)-1-(4-fluorophenyl)cyclopropane-1-carboxamide]
 |  |  |  | +++ (≥350) | < 3 | > 150 | 3 to 10 | Cc1cnc(OCC2CC2)c(C2(C(=O)NS(=O)(=O)c3cccc4ncccc34)CC2)c1 [Example GI-96, 1-[2-(cyclopropylmethoxy)-5-methylpyridin-3-yl]-N-(quinoline-5-sulfonyl)cyclopropane-1-carboxamide]
 |  |  |  | +++ (≥350) | 3 to 10 | > 150 | 3 to 10 | CC(C)Oc1cnc(C2CCC2)cc1C1(C(=O)NS(=O)(=O)c2cccc3c2CCCN3)CC1 [GII-26, 1-{2-cyclobutyl-5-[(propan-2-yl)oxy]pyridin-4-yl}-N-(1,2,3,4-tetrahydroquinoline-5-sulfonyl)cyclopropane-1-carboxamide]
< 3 | +++ (≥350) | < 3 | > 150 |  |  |  |  | CO[C@@H](C)COc1ccc(C)cc1C1(C(=O)NS(=O)(=O)c2cccc3ncccc23)CC1 [Example I-113, 1-{2-[(2S)-2-methoxypropoxy]-5-methylphenyl}-N-(quinoline-5-sulfonyl)cyclopropane-1-carboxamide]
 |  |  |  | +++ (≥350) | < 3 | > 150 | < 3 | CC(C)Oc1ccc(C2CCC2)nc1C1(C(=O)NS(=O)(=O)c2cccc3ncccc23)CC1 [Example GI-39, 1-{6-cyclobutyl-3-[(propan-2-yl)oxy]pyridin-2-yl}-N-(quinoline-5-sulfonyl)cyclopropane-1-carboxamide]
< 3 | +++ (≥350) | < 3 | > 150 |  |  |  |  | COc1ccc(C2CCC2)cc1C1(C(=O)NS(=O)(=O)c2cccc3ccn(C)c23)CC1 [Example I-59, 1-(5-cyclobutyl-2-methoxyphenyl)-N-(1-methyl-1H-indole-7-sulfonyl)cyclopropane-1-carboxamide]
< 3 | +++ (≥350) | < 3 | > 150 |  |  |  |  | COc1ccc2c(S(=O)(=O)NC(=O)C3(c4cc(C5CC5)cnc4OCC(C)C)CC3)cccc2n1 [II-93]

From patent US10829473B2, “Modulators of the cystic fibrosis transmembrane conductance regulator protein and methods of use” (AbbVie Overseas S.Á.R.L., priority 2017, dated 2020)
